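Briefly, cells in 96-well plates were exposed to five compound concentrations for 48 h, and endpoints were estimated by linear interpolation. TGI: total growth inhibition.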
Legend:
Test in all cases: NCI anticancer screen, dose series, 48 h
786-0 renal = tested on: 786-0 renal
A549 NSCLC = tested on: A549 NSCLC
ACHN renal = tested on: ACHN renal
BT-549 breast = tested on: BT-549 breast
CAKI-1 renal = tested on: CAKI-1 renal
COLO 205 colon = tested on: COLO 205 colon
DU-145 prostate = tested on: DU-145 prostate
EKVX NSCLC = tested on: EKVX NSCLC
HCC-2998 colon = tested on: HCC-2998 colon
HCT-116 colon = tested on: HCT-116 colon
HCT-15 colon = tested on: HCT-15 colon
HL-60(TB) leukemia = tested on: HL-60(TB) leukemia
HOP-62 NSCLC = tested on: HOP-62 NSCLC
HOP-92 NSCLC = tested on: HOP-92 NSCLC
HS 578T breast = tested on: HS 578T breast
HT29 colon = tested on: HT29 colon
IGROV1 ovarian = tested on: IGROV1 ovarian
K-562 leukemia = tested on: K-562 leukemia
KM12 colon = tested on: KM12 colon
LOX IMVI melanoma = tested on: LOX IMVI melanoma
M14 melanoma = tested on: M14 melanoma
MALME-3M melanoma = tested on: MALME-3M melanoma
MCF7 breast = tested on: MCF7 breast
MDA-MB-231 breast = tested on: MDA-MB-231 breast
MDA-MB-435 = tested on: MDA-MB-435
MDA-N = tested on: MDA-N
MOLT-4 leukemia = tested on: MOLT-4 leukemia
NCI-H226 lung = tested on: NCI-H226 lung
NCI-H23 lung = tested on: NCI-H23 lung
NCI-H460 lung = tested on: NCI-H460 lung
NCI-H522 lung = tested on: NCI-H522 lung
NCI/ADR-RES ovarian = tested on: NCI/ADR-RES ovarian
OVCAR-3 ovarian = tested on: OVCAR-3 ovarian
OVCAR-4 ovarian = tested on: OVCAR-4 ovarian
OVCAR-5 ovarian = tested on: OVCAR-5 ovarian
OVCAR-8 ovarian = tested on: OVCAR-8 ovarian
PC-3 prostate = tested on: PC-3 prostate
RPMI-8226 leukemia = tested on: RPMI-8226 leukemia
RXF 393 renal = tested on: RXF 393 renal
SF-268 CNS = tested on: SF-268 CNS
SF-295 CNS = tested on: SF-295 CNS
SF-539 CNS = tested on: SF-539 CNS
SK-MEL-2 melanoma = tested on: SK-MEL-2 melanoma
SK-MEL-28 melanoma = tested on: SK-MEL-28 melanoma
SK-MEL-5 melanoma = tested on: SK-MEL-5 melanoma
SK-OV-3 ovarian = tested on: SK-OV-3 ovarian
SN12C renal = tested on: SN12C renal
SNB-19 CNS = tested on: SNB-19 CNS
SNB-75 CNS = tested on: SNB-75 CNS
SR leukemia = tested on: SR leukemia
SW-620 colon = tested on: SW-620 colon
T-47D breast = tested on: T-47D breast
TK-10 renal = tested on: TK-10 renal
U251 CNS = tested on: U251 CNS
UACC-257 melanoma = tested on: UACC-257 melanoma
UACC-62 melanoma = tested on: UACC-62 melanoma
UO-31 renal = tested on: UO-31 renal

`C[C@]12CC/C(=N\O)C=C1CC[C@@H]1[C@@H]2CC[C@]2(C)C(=N/O)/C(=C/c3ccncc3)C[C@@H]12` was tested. Which TGI (786-0 renal) did it give?
The TGI was over 100 µM.

What about the TGI (A549 NSCLC) of the same compound?
Its TGI is over 100 µM.

And the TGI (ACHN renal)?
The TGI was over 100 µM.

And the TGI (BT-549 breast)?
Its TGI is over 100 µM.

And the TGI (CAKI-1 renal)?
The TGI was over 100 µM.

What about the TGI (COLO 205 colon) of the same compound?
Its TGI is over 100 µM.

And the TGI (DU-145 prostate)?
The TGI was over 100 µM.

And the TGI (EKVX NSCLC)?
The TGI was over 100 µM.

And the TGI (HCC-2998 colon)?
Its TGI is 59.7 µM.

And the TGI (HCT-116 colon)?
The TGI was 47.4 µM.

What about the TGI (HCT-15 colon) of the same compound?
The TGI was over 100 µM.

And the TGI (HL-60(TB) leukemia)?
The TGI was 5.09 µM.

And the TGI (HOP-62 NSCLC)?
The TGI was over 100 µM.

And the TGI (HOP-92 NSCLC)?
Its TGI is over 100 µM.

And the TGI (HS 578T breast)?
Its TGI is over 100 µM.

And the TGI (HT29 colon)?
The TGI was 42.1 µM.

And the TGI (IGROV1 ovarian)?
Its TGI is over 100 µM.

And the TGI (K-562 leukemia)?
The TGI was over 100 µM.

And the TGI (KM12 colon)?
Its TGI is over 100 µM.

What about the TGI (LOX IMVI melanoma) of the same compound?
Its TGI is over 100 µM.

And the TGI (M14 melanoma)?
The TGI was 34 µM.

What about the TGI (MALME-3M melanoma) of the same compound?
The TGI was over 100 µM.

And the TGI (MCF7 breast)?
The TGI was 67.9 µM.

What about the TGI (MDA-MB-231 breast) of the same compound?
The TGI was over 100 µM.

What about the TGI (MDA-MB-435) of the same compound?
Its TGI is 95.8 µM.

What about the TGI (MDA-N) of the same compound?
The TGI was over 100 µM.

What about the TGI (MOLT-4 leukemia) of the same compound?
The TGI was over 100 µM.

What about the TGI (NCI-H226 lung) of the same compound?
Its TGI is 87.3 µM.

And the TGI (NCI-H23 lung)?
Its TGI is over 100 µM.

And the TGI (NCI-H460 lung)?
The TGI was 85 µM.

And the TGI (NCI-H522 lung)?
Its TGI is 99.2 µM.

What about the TGI (NCI/ADR-RES ovarian) of the same compound?
The TGI was over 100 µM.

And the TGI (OVCAR-3 ovarian)?
The TGI was 72.3 µM.

What about the TGI (OVCAR-4 ovarian) of the same compound?
Its TGI is over 100 µM.

What about the TGI (OVCAR-5 ovarian) of the same compound?
The TGI was over 100 µM.

What about the TGI (OVCAR-8 ovarian) of the same compound?
Its TGI is over 100 µM.

And the TGI (PC-3 prostate)?
Its TGI is 62.6 µM.

What about the TGI (RPMI-8226 leukemia) of the same compound?
The TGI was 42.7 µM.

What about the TGI (RXF 393 renal) of the same compound?
The TGI was over 100 µM.

And the TGI (SF-268 CNS)?
Its TGI is over 100 µM.

And the TGI (SF-295 CNS)?
The TGI was over 100 µM.

What about the TGI (SF-539 CNS) of the same compound?
Its TGI is over 100 µM.

What about the TGI (SK-MEL-2 melanoma) of the same compound?
The TGI was 34.2 µM.

What about the TGI (SK-MEL-28 melanoma) of the same compound?
The TGI was over 100 µM.

What about the TGI (SK-MEL-5 melanoma) of the same compound?
The TGI was 23 µM.

What about the TGI (SK-OV-3 ovarian) of the same compound?
The TGI was over 100 µM.

What about the TGI (SN12C renal) of the same compound?
Its TGI is over 100 µM.

And the TGI (SNB-19 CNS)?
The TGI was over 100 µM.

And the TGI (SNB-75 CNS)?
The TGI was over 100 µM.

What about the TGI (SR leukemia) of the same compound?
Its TGI is 62.2 µM.

What about the TGI (SW-620 colon) of the same compound?
The TGI was over 100 µM.

What about the TGI (T-47D breast) of the same compound?
The TGI was 88.5 µM.

And the TGI (TK-10 renal)?
The TGI was over 100 µM.

And the TGI (U251 CNS)?
Its TGI is over 100 µM.

And the TGI (UACC-257 melanoma)?
The TGI was 80.2 µM.

What about the TGI (UACC-62 melanoma) of the same compound?
Its TGI is 35 µM.

And the TGI (UO-31 renal)?
The TGI was 24.3 µM.
